For 56 compounds, IC50 results are on record in article PMC12064818, “A general assay platform to study protein pharmacology using ligand-dependent structural dynamics” (Nature Communications, 2025).

The assay deals with T1, FLuc-C-HiBiT (Photinus pyralis, UniProt P08659).
T1 construct: firefly luciferase with C-terminal HiBiT tag, E. coli expressed
The assay can be described thus: biochemical. As to conditions: enzyme activity, 10 uM ATP; read-out: IC50 or SDR50 (mM) / FLuc E. The method, then:
The enzyme activity of FLuc-N-HiBiT, FLuc-C-HiBiT, and FLuc-C-NLuc was measured similar to P. pyralis firefly luciferase (FLuc) as previously described. […] Compounds and controls were added to each plate as described in Supplementary Data 8 with a Hornet pintool system (Wako Automation). Compounds were incubated with respective enzymes for 30–60 min at room temperature protected from light and covered by solid metal lid to prevent evaporation. […] Luciferin was incubated with FLuc enzyme for 5 min before FLuc activity was then measured on a ViewLux CCD imager (PerkinElmer), with exposure times up to ten seconds with medium to high gain settings. Data were normalized to average no enzyme control as 100% enzyme inhibition and average DMSO neutral control. See Supplementary Table 4 for additional details. As a proof-of-concept target, we appended the sensor protein or corresponding α-peptide to either the N- or C-terminus of the target protein firefly luciferase (FLuc), an ATP cofactor-dependent monooxygenase (Supplementary Fig. 1a) having a broad, well-characterized and accessible ligand pharmacology. For initial characterization of the SDR concept, either NLuc or the 11 amino acid HiBiT tag (α-peptide) and complementary 18 kDa LgBiT subunit (ω-fragment), which self-assemble to reconstitute functional NLuc enzyme[24] were tested. In contrast to the ATP-dependent bioluminescent FLuc enzyme, NLuc generates a bright bioluminescence in an ATP-independent manner from the direct oxidation of furimazine (Supplementary Fig. 1b). […] Next, FLuc-C-NLuc, FLuc-N-HiBiT or FLuc-C-HiBiT were assayed with the same inhibitor in an SDR assay format by monitoring bioluminescence from NLuc or its reconstitution by α-complementation with LgBiT. Measurements of NLuc activity were made either in the absence or presence of the FLuc ATP cofactor, as NLuc bioluminescence is ATP-independent.

T1 sequence (P08659 whole entry, looked up): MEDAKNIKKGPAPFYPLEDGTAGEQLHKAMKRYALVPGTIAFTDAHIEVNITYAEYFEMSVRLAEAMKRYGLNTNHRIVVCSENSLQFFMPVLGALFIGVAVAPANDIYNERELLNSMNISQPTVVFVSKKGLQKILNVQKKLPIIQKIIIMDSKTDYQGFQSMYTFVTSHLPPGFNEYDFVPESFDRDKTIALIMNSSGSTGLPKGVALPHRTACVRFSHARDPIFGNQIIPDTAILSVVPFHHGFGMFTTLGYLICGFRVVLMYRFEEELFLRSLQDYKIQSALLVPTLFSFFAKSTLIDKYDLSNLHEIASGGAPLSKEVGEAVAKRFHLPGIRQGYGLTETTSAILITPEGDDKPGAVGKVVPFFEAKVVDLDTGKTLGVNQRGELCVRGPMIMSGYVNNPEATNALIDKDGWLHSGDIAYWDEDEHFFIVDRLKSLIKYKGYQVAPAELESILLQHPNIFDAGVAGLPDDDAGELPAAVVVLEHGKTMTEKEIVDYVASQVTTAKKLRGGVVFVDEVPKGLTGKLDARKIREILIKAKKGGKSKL

In the case of `CCCOC(=O)CSc1ncnc2sc3c(c12)CCC(C)C3` (centres unmarked) [NCGC00100112-01], the IC50 was 11.1 µM. Regarding `Nc1c(C(=O)Nc2ccc(C(=O)O)cc2)sc2nc3c(cc12)CCCC3` [NCGC00100367-01], the IC50 was 0.176 µM. With `CCOC(=O)C1(C)C=C(Nc2cccc(C(=O)O)c2)C(=O)N1c1ccccc1` (centres unmarked) [NCGC00100416-01], the IC50 turned out to be 12.4 µM. To `COc1ccc(C(=O)Oc2ccc(C(c3c(C)n[nH]c3O)c3c(C)n[nH]c3O)cc2)cc1` [NCGC00100425-01] belongs 9.89 µM; to `COc1ccc(-c2cc(=O)c3cc(OCC(=O)OC(C)C)ccc3o2)cc1` [NCGC00100608-01], 3.94 µM; to `COc1ccc2oc(=O)c(C(=O)Nc3cccc(C(=O)O)c3)cc2c1` [NCGC00100698-01], 0.0157 µM. The result for `COc1ccc(C(=O)COC(=O)CCCC(=O)Nc2ccc(C(C)=O)cc2)cc1` [NCGC00100762-01] reads 9.89 µM; that for `O=C(COC(=O)c1cc(-c2cccs2)nc2ccccc12)c1ccc(Br)cc1` [NCGC00100768-01], over 30 µM. For the compound `Cc1ccc(C(=O)COC(=O)c2cc(-c3cccs3)nc3ccccc23)cc1` [NCGC00100788-01], the IC50 amounted to 12.4 µM.

In the case of `COc1ccc(CN(C(=O)c2cc3ccccc3oc2=O)C2CC[S+](=O)([O-])C2)cc1OC` (centres unmarked) [NCGC00100996-01], the IC50 was over 30 µM. To `CCCc1ccc(OCc2ccc(C(=O)Nc3ccccc3C(=O)OC)o2)cc1` [NCGC00101032-01] belongs 12.4 µM; to `COCCNc1oc(-c2ccc(OC)cc2)nc1C#N` [NCGC00101301-01], 12.4 µM; to `CC(C)c1ccc(C(=O)Nc2ccc(-c3nc4ccccc4s3)c(Cl)c2)cc1` [NCGC00101984-01], over 30 µM. To `COc1ccc(C(=O)Nc2ccc(-c3nc4ccccc4s3)c(Cl)c2)cc1Cl` [NCGC00102002-01] belongs over 30 µM; to `COc1c(C)cccc1C(=O)Nc1ccc(-c2nc3ccccc3s2)c(Cl)c1` [NCGC00102004-01], over 30 µM; to `CCCOc1cccc(C(=O)Nc2ccc(-c3nc4ccccc4s3)c(Cl)c2)c1` [NCGC00102006-02], 15.7 µM. The result for `COc1ccc(-c2nc3ccccc3s2)cc1NC(=O)c1ccccc1OC` [NCGC00102097-01] reads 11.1 µM. For the compound `Cc1ccc(Cc2cn3cc(-c4ccccc4)nc3s2)cc1` [NCGC00102098-01], the IC50 was determined as 0.442 µM. The result for `COc1ccc(-c2nc3ccccc3s2)cc1NC(=O)c1cc(OC)c(OC)c(OC)c1` [NCGC00102099-01] reads 1.57 µM.

With `Clc1ccccc1Cc1cn2cc(-c3ccccc3)nc2s1` [NCGC00102100-01], the IC50 is 0.442 µM. To `COc1ccc(-c2nc3ccccc3s2)cc1NC(=O)COc1cccc(C)c1` [NCGC00102101-01] belongs over 30 µM; to `Fc1ccc(Cc2cn3cc(-c4ccccc4)nc3s2)cc1` [NCGC00102102-01], 0.442 µM; to `COc1ccc(-c2nc3ccccc3s2)cc1NC(=O)c1cc2ccccc2o1` [NCGC00102103-01], over 30 µM. The result for `Clc1ccc(-c2cn3cc(Cc4ccccc4)sc3n2)cc1` [NCGC00102104-01] reads 0.785 µM; that for `Fc1ccccc1Cc1cn2cc(-c3ccc(Cl)cc3)nc2s1` [NCGC00102106-01], 1.57 µM. On to `Fc1ccc(Cc2cn3cc(-c4ccc(Cl)cc4)nc3s2)cc1` [NCGC00102108-01], for which the IC50 stood at 3.51 µM. As to `Fc1ccc(-c2cn3cc(Cc4ccccc4)sc3n2)cc1` [NCGC00102110-01], the IC50 was 0.279 µM. `Fc1ccc(-c2cn3cc(Cc4ccccc4Cl)sc3n2)cc1` [NCGC00102130-01]: the IC50 was found to be 0.989 µM. To `Fc1ccc(Cc2cn3cc(-c4ccc(F)cc4)nc3s2)cc1` [NCGC00102134-01] belongs 0.881 µM. The result for `Brc1ccc(-c2cn3cc(Cc4ccccc4)sc3n2)cc1` [NCGC00102136-01] reads 0.881 µM.

On to `COc1ccc(-c2noc(-c3ccc(C)cc3Cl)n2)cc1OC` [NCGC00102273-01], for which the IC50 was 1.24 µM. As for `COc1cc(OC)cc(C(=O)Nc2cc(-c3nc4ccccc4s3)ccc2OC)c1` [NCGC00102359-01], the IC50 is over 30 µM. To `COc1ccc(-c2nc3ccccc3s2)cc1NC(=O)c1cccc([N+](=O)[O-])c1C` [NCGC00102361-01] belongs 6.24 µM; to `Cc1cc(-c2nc3ccccc3s2)ccc1NC(=O)c1cc(Cl)ccc1Cl` [NCGC00102363-01], over 30 µM. The result for `COc1ccc(C(=O)Nc2ccc(-c3nc4ccccc4s3)cc2C)cc1Cl` [NCGC00102365-01] reads over 30 µM. The result for `CCCCOc1ccc(C(=O)Nc2ccc(-c3nc4ccccc4s3)cc2C)cc1` [NCGC00102367-01] reads over 30 µM; that for `O=C(/C=C/c1ccccc1)Nc1cc(-c2nc3cc(Cl)ccc3o2)ccc1Cl` [NCGC00102391-01], over 30 µM; that for `Cc1ccc2nc(-c3cccc(NC(=O)CSc4ccc(Cl)cc4)c3)oc2c1` [NCGC00102431-01], 3.51 µM. As for `Cc1cc2nc(-c3cccc(NC(=O)COc4ccc(C(C)C)cc4)c3)oc2cc1C` [NCGC00102495-01], the IC50 stood at 9.89 µM. To `COc1ccc(C(=O)Nc2cc(C(C)C)c(O)c([S+](=O)([O-])c3ccc(Cl)cc3)c2C)cc1` [NCGC00102536-01] belongs 12.4 µM; to `O=C(Nc1ccccc1-c1nc2ccccc2s1)c1ccc(F)cc1` [NCGC00102555-01], over 30 µM; to `COc1cccc(C(=O)Nc2ccccc2-c2nc3ccccc3s2)c1` [NCGC00102557-01], over 30 µM.

For the compound `COc1ccc(C(=O)Nc2cc([S+](=O)([O-])c3ccc(Cl)cc3)c(O)c(C)c2C)cc1` [NCGC00102574-01], the IC50 is over 30 µM.

For `COc1ccc(C(=O)Nc2ccccc2-c2nc3ccccc3s2)cc1OC` [NCGC00102625-01], the IC50 was over 30 µM. For `COc1cccc2cc(C(=O)Nc3ccc(CC(=O)O)cc3)c(=O)oc12` [NCGC00102789-01], the IC50 amounted to 3.13 µM. `Nc1nn(-c2ccccc2)nc1C(=O)OCc1ccccc1` [NCGC00102837-01]: the IC50 is over 30 µM. As to `COc1ccc(Br)cc1C(=O)Nc1nc2ccc(F)cc2s1` [NCGC00102907-01], the IC50 is over 30 µM. The result for `CN1CCc2nc3sc(C(=O)Nc4cccc(C#N)c4)c(N)c3cc2C1` [NCGC00103003-01] reads over 30 µM; that for `COc1ccc(C(=O)Nc2cc(-c3nc4ccccc4s3)ccc2OC)cc1` [NCGC00103028-01], 9.89 µM. The result for `COc1ccc(-c2nc3ccccc3s2)cc1NC(=O)COc1ccc(C)cc1` [NCGC00103030-01] reads over 30 µM; that for `COc1ccc(-c2nc3ccccc3s2)cc1NC(=O)c1ccc(F)cc1` [NCGC00103032-01], over 30 µM; that for `COc1ccc(-c2nc3ccccc3s2)cc1NC(=O)c1ccccc1F` [NCGC00103034-01], over 30 µM. `COc1ccc(-c2nc3ccccc3s2)cc1NC(=O)COc1ccccc1C` [NCGC00103036-01]: the IC50 is over 30 µM. In the case of `COc1ccc(-c2nc3ccccc3s2)cc1NC(=O)c1ccc(C#N)cc1F` [NCGC00103038-01], the IC50 is over 30 µM.

As for `CCOc1ccc(C(=O)Nc2cc(-c3nc4ccccc4s3)ccc2OC)cc1` [NCGC00103040-01], the IC50 is over 30 µM. With `CCCOc1ccccc1C(=O)Nc1ccc(-c2nc3ccc(C)cc3s2)cc1` [NCGC00103054-01], the IC50 was determined as 6.24 µM.
